A word on the AC50: it is the midpoint of the concentration-response curve, whichever way the signal moves. As a reminder, the EC50 is the concentration giving half of the maximal effect. What is called IC50 is the concentration needed to halve the response being measured.

The source made the active and inactive calls.

Assay [1] deals with Dual specificity tyrosine-phosphorylation-regulated kinase 1A (Rattus norvegicus, UniProt Q63470). The format is biochemical, Homo sapiens.
A further assay deals with T1, Protein RecA (Mycobacterium tuberculosis, UniProt P9WHJ3).
T1 sequence (P9WHJ3 whole entry): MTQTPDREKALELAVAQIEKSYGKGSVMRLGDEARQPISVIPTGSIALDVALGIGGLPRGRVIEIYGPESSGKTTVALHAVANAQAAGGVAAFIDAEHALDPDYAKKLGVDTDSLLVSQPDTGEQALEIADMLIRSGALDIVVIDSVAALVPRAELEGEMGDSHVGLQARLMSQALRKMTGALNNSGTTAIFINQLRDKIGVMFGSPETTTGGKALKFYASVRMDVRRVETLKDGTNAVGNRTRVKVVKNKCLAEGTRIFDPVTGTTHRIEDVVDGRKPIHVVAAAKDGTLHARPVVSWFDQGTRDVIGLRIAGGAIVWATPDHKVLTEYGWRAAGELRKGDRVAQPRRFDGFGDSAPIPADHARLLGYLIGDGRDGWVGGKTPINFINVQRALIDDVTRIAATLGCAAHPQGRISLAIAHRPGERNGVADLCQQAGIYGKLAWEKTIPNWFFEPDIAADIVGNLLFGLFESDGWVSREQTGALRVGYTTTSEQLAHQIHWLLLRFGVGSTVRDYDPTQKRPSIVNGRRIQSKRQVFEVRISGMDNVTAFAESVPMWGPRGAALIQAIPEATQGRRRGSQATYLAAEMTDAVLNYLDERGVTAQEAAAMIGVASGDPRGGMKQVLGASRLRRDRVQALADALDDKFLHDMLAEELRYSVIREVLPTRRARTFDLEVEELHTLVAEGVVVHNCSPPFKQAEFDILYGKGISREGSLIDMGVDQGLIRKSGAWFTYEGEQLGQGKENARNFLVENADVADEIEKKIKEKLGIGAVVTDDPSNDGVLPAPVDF
Put plainly: Fluorescence Cell-Free Homogeneous Dose Retest to Identify Inhibitors of RecA-Intein Splicing Activity. [Related pubchem assays (depositor defined):AID2097, AID2223, AID489010, AID492950]. Format: functional.

For assay [2], the target named is T2, Histone-lysine N-methyltransferase NSD2 (Homo sapiens, UniProt O96028).
T2 sequence (O96028 whole entry): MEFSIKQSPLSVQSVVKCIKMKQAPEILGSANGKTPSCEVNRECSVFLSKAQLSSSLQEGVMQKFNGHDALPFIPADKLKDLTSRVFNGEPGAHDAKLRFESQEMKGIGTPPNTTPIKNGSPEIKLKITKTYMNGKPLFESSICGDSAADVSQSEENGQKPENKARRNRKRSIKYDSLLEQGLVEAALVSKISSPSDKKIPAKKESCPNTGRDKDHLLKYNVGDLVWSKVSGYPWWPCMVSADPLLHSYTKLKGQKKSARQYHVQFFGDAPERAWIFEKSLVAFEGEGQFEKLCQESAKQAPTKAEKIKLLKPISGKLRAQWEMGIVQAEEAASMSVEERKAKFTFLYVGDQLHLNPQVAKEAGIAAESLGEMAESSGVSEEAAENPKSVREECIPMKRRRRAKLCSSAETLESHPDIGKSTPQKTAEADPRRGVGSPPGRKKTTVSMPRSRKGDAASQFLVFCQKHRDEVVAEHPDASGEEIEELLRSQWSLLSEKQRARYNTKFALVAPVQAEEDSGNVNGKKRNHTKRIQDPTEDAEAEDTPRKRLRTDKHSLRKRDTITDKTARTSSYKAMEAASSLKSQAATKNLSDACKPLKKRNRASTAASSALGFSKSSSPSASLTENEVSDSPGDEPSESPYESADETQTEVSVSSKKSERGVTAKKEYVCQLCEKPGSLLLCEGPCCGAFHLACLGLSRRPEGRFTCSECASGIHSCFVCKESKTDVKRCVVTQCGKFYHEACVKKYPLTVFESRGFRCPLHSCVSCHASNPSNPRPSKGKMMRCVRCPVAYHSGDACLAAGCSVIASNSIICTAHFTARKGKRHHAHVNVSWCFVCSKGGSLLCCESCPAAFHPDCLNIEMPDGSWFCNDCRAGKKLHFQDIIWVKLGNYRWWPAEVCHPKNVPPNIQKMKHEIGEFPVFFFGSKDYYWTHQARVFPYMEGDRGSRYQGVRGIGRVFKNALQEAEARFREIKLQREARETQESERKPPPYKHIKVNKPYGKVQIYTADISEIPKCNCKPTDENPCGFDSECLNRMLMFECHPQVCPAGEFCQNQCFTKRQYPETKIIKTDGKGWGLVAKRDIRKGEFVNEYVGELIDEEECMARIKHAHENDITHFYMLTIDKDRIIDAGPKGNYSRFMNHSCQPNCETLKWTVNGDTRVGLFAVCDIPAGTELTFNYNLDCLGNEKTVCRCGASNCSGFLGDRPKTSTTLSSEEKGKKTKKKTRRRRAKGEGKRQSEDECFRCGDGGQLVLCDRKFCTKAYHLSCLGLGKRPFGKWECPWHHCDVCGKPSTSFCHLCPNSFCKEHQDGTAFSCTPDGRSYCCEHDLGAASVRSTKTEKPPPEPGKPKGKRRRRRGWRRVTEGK
The format is biochemical.

Assay [3] deals with T3, Tyrosyl-DNA phosphodiesterase 2 (Homo sapiens, UniProt O95551).
T3 sequence (O95551 whole entry): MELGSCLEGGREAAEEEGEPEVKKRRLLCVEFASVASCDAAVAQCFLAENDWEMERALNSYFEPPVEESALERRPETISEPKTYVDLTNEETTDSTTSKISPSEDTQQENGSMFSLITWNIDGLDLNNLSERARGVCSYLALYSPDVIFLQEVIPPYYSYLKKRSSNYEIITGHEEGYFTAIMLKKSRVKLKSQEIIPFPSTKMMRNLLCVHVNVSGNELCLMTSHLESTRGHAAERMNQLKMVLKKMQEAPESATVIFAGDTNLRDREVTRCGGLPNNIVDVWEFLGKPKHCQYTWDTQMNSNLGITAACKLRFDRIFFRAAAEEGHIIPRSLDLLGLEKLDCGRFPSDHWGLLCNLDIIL
Put plainly: potency against TDP2 phosphodiesterase activity – biochemical, epi absorbance, IC50, dose response (AID 743297).

Take `N#Cc1c(N2CCCC2)nc(N)c2c(N)nc(N3CCCC3)cc12`: in assay [1], the AC50 was 287 nM (active). Moreover, the EC50 on Protein RecA is 109 nM (active).

`COC(=O)c1cc(C)nc2c1C(=O)C(=O)C=C2N1CCOCC1`: the AC50 is 407 nM (active) in assay [2] and 983 nM (active) in assay [1]. The IC50 in assay [3] was 1330 nM (active). Also, the EC50 on Protein RecA is 199 nM (active).

Consider `CCOC(=O)C1=C(C)OC2(O)c3ccccc3C(=O)C12O` (stereo not drawn), for which the AC50 in assay [2] was 8900 nM (active). The half-inhibitory concentration (IC50) in assay [3] is 4110 nM (active).

Values taken from ChEMBL document CHEMBL1201862, “PubChem BioAssay data set” (2004).
